According to PubChem BioAssay AID248 (DTP/NCI, 2004):
Where “and” joins values, the source holds several entries; their conditions need not be identical. Equal entries are not always repeated. Inconclusive results and toxic doses are left out. No stated cut-off is given here; in the data, active means T/C of 150% or more; inactive means T/C below 125%.

Tested on: L1210 leukemia ip in BDF1 mice, survival T/C
Assay: NCI In Vivo Anticancer Drug Screen. Data for tumor model L1210 Leukemia (intraperitoneal) in B6D2F1 (BDF1) mice
Settings: endpoint: mean survival time, higher = longer survival
Procedure, shortened: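 Ratio derived from survival: compound-dosed mice over vehicle-dosed mice, all bearing a transplantable tumor.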

[1] = dose: 50.0 mg/kg/injection, schedule: Q01DX001 (ip), vehicle: carboxymethylcellulose (CMC)
[2] = dose: 100.0 mg/kg/injection, schedule: Q01DX001 (ip), vehicle: carboxymethylcellulose (CMC)
[3] = dose: 200.0 mg/kg/injection, schedule: Q01DX001 (ip), vehicle: carboxymethylcellulose (CMC)
[4] = dose: 400.0 mg/kg/injection, schedule: Q01DX001 (ip), vehicle: carboxymethylcellulose (CMC)
[5] = dose: 25.0 mg/kg/injection, schedule: Q01DX009 (ip), vehicle: saline
[6] = dose: 50.0 mg/kg/injection, schedule: Q01DX009 (ip), vehicle: saline
[7] = dose: 100.0 mg/kg/injection, schedule: Q01DX009 (ip), vehicle: saline
[8] = dose: 100.0 mg/kg/injection, schedule: Q04DX003 (ip), vehicle: saline

Measured: T/C

O=C(CI)Nc1ccc(O)c2ccccc12
inactive: dose: 3.12 mg/kg/injection, schedule: Q04DX003 (ip), vehicle: water 111 % of control and 86 % of control | dose: 6.25 mg/kg/injection, schedule: Q01DX009 (ip), vehicle: water 99 % of control | dose: 6.25 mg/kg/injection, schedule: Q04DX003 (ip), vehicle: water 121 % of control and 91 % of control | dose: 12.5 mg/kg/injection, schedule: Q01DX009 (ip), vehicle: water 86 % of control | dose: 75.0 mg/kg/injection, schedule: Q04DX003 (ip), vehicle: water 93 % of control

CC(=O)Nc1cc(C)ns1
inactive: [1] 104 % of control | [2] 104 % of control | [3] 101 % of control | [4] 98 % of control

CC(C)(C)c1cc(C(=S)N2CCN(C(=S)c3cc(C(C)(C)C)c(O)c(C(C)(C)C)c3)CC2)cc(C(C)(C)C)c1O
inactive: dose: 100.0 mg/kg/injection, schedule: Q04DX003 (ip), vehicle: Klucel (hydroxypropylcellulose) (HPC) 97 % of control | dose: 200.0 mg/kg/injection, schedule: Q04DX003 (ip), vehicle: Klucel (hydroxypropylcellulose) (HPC) 94 % of control | dose: 400.0 mg/kg/injection, schedule: Q04DX003 (ip), vehicle: Klucel (hydroxypropylcellulose) (HPC) 96 % of control

Cn1c(=O)c2c(ncn2C)n(C)c1=O
inactive: dose: 25.0 mg/kg/injection, schedule: Q01DX Z (ip), vehicle: saline 92 % of control | dose: 50.0 mg/kg/injection, schedule: Q01DX Z (ip), vehicle: saline 90 % of control | dose: 100.0 mg/kg/injection, schedule: Q01DX009 (ip), vehicle: saline with Tween-80 93 % of control | dose: 100.0 mg/kg/injection, schedule: Q01DX Z (ip), vehicle: saline 92 % of control | dose: 115.0 mg/kg/injection, schedule: Q01DX001 (ip), vehicle: saline 97 % of control | dose: 175.0 mg/kg/injection, schedule: Q01DX001 (ip), vehicle: saline 111 % of control | dose: 200.0 mg/kg/injection, schedule: Q01DX009 (ip), vehicle: saline with Tween-80 95 % of control | dose: 200.0 mg/kg/injection, schedule: Q01DX Z (ip), vehicle: saline 90 % of control | dose: 265.0 mg/kg/injection, schedule: Q01DX001 (ip), vehicle: saline 103 % of control

CC(OC(=O)CC(=O)CCl)c1ccccc1 (stereo not drawn)
inactive: dose: 100.0 mg/kg/injection, schedule: Q04DX002 (ip), vehicle: Klucel (hydroxypropylcellulose) (HPC) 102 % of control | dose: 200.0 mg/kg/injection, schedule: Q04DX002 (ip), vehicle: Klucel (hydroxypropylcellulose) (HPC) 98 % of control | dose: 400.0 mg/kg/injection, schedule: Q04DX002 (ip), vehicle: Klucel (hydroxypropylcellulose) (HPC) 87 % of control

NCCc1ccc2c(c1)OCO2
inactive: [5] 109 % of control | [6] 107 % of control | [7] 100 % of control and 107 % of control | [8] 97 % of control | dose: 200.0 mg/kg/injection, schedule: Q04DX003 (ip), vehicle: saline 102 % of control

Nc1ccc(-c2ccc(Nc3cc(S(=O)(=O)O)c(N)c4c3C(=O)c3ccccc3C4=O)cc2)c(S(=O)(=O)O)c1
inactive: dose: 10.0 mg/kg/injection, schedule: Q01DX001 (ip), vehicle: acetone 96 % of control | dose: 20.0 mg/kg/injection, schedule: Q01DX001 (ip), vehicle: acetone 89 % of control | dose: 40.0 mg/kg/injection, schedule: Q01DX001 (ip), vehicle: acetone 100 % of control

CCC[CH2][Sn]([CH2]C)([CH2]C)[O]C(C)=O
inactive: dose: 5.0 mg/kg/injection, schedule: Q01DX001 (ip), vehicle: saline with Tween-80 90 % of control | dose: 10.0 mg/kg/injection, schedule: Q01DX001 (ip), vehicle: saline with Tween-80 93 % of control

CN1CCN(CCCN2c3ccccc3Sc3ccc(C(F)(F)F)cc32)CC1
inactive: dose: 3.12 mg/kg/injection, schedule: Q01DX009 (ip), vehicle: saline 93 % of control | dose: 6.25 mg/kg/injection, schedule: Q01DX009 (ip), vehicle: saline 98 % of control and 104 % of control and 118 % of control | dose: 9.0 mg/kg/injection, schedule: Q04DX003 (ip), vehicle: saline with Tween-80 112 % of control | dose: 9.3 mg/kg/injection, schedule: Q01DX009 (ip), vehicle: saline 101 % of control | dose: 10.0 mg/kg/injection, schedule: Q01DX009 (ip), vehicle: saline with Tween-80 106 % of control | dose: 12.5 mg/kg/injection, schedule: Q01DX009 (ip), vehicle: saline 113 % of control and 106 % of control | dose: 12.5 mg/kg/injection, schedule: Q04DX003 (ip), vehicle: saline 102 % of control | dose: 15.0 mg/kg/injection, schedule: Q01DX009 (ip), vehicle: saline with Tween-80 101 % of control | dose: 18.0 mg/kg/injection, schedule: Q01DX001 (ip), vehicle: saline with Tween-80 104 % of control | dose: 18.0 mg/kg/injection, schedule: Q04DX003 (ip), vehicle: saline with Tween-80 117 % of control | dose: 18.7 mg/kg/injection, schedule: Q01DX009 (ip), vehicle: saline 114 % of control | dose: 18.75 mg/kg/injection, schedule: Q04DX003 (ip), vehicle: saline 106 % of control | dose: 20.0 mg/kg/injection, schedule: Q04DX003 (ip), vehicle: saline with Tween-80 111 % of control | dose: 22.0 mg/kg/injection, schedule: Q01DX009 (ip), vehicle: saline with Tween-80 118 % of control | dose: 25.0 mg/kg/injection, schedule: Q01DX009 (ip), vehicle: acetone 107 % of control | dose: 25.0 mg/kg/injection, schedule: Q01DX009 (ip), vehicle: saline with Tween-80 108 % of control | [5] 102 % of control and 109 % of control | dose: 25.0 mg/kg/injection, schedule: Q04DX003 (ip), vehicle: acetone 100 % of control | dose: 25.0 mg/kg/injection, schedule: Q04DX003 (ip), vehicle: saline 103 % of control [middle of 4 runs] | dose: 30.0 mg/kg/injection, schedule: Q04DX003 (ip), vehicle: saline with Tween-80 119 % of control | dose: 33.0 mg/kg/injection, schedule: Q01DX009 (ip), vehicle: saline with Tween-80 123 % of control | dose: 37.0 mg/kg/injection, schedule: Q01DX001 (ip), vehicle: saline with Tween-80 104 % of control | dose: 37.5 mg/kg/injection, schedule: Q04DX003 (ip), vehicle: saline 96 % of control | dose: 44.0 mg/kg/injection, schedule: Q04DX003 (ip), vehicle: saline with Tween-80 116 % of control | dose: 50.0 mg/kg/injection, schedule: Q01DX009 (ip), vehicle: acetone 120 % of control | dose: 50.0 mg/kg/injection, schedule: Q04DX003 (ip), vehicle: acetone 100 % of control | dose: 50.0 mg/kg/injection, schedule: Q04DX003 (ip), vehicle: saline 111 % of control [middle of 4 runs] | dose: 66.0 mg/kg/injection, schedule: Q04DX003 (ip), vehicle: saline with Tween-80 108 % of control | dose: 75.0 mg/kg/injection, schedule: Q01DX001 (ip), vehicle: saline with Tween-80 113 % of control | dose: 75.0 mg/kg/injection, schedule: Q04DX003 (ip), vehicle: saline with Tween-80 119 % of control | dose: 75.0 mg/kg/injection, schedule: Q04DX003 (ip), vehicle: saline 102 % of control | dose: 100.0 mg/kg/injection, schedule: Q01DX001 (ip), vehicle: saline 101 % of control | dose: 100.0 mg/kg/injection, schedule: Q01DX009 (ip), vehicle: acetone 113 % of control | dose: 100.0 mg/kg/injection, schedule: Q04DX003 (ip), vehicle: acetone 121 % of control | [8] 99 % of control and 112 % of control | dose: 150.0 mg/kg/injection, schedule: Q01DX001 (ip), vehicle: saline with Tween-80 90 % of control

O=[N+]([O-])c1ccc(N2CCCC2)cc1
inactive: dose: 100.0 mg/kg/injection, schedule: Q01DX001 (ip), vehicle: Klucel (hydroxypropylcellulose) (HPC) 97 % of control | dose: 200.0 mg/kg/injection, schedule: Q01DX001 (ip), vehicle: Klucel (hydroxypropylcellulose) (HPC) 105 % of control | dose: 400.0 mg/kg/injection, schedule: Q01DX001 (ip), vehicle: Klucel (hydroxypropylcellulose) (HPC) 108 % of control

CC#CC#Cc1cccc(=O)o1
inactive: dose: 25.0 mg/kg/injection, schedule: Q04DX003 (ip), vehicle: other 90 % of control | dose: 50.0 mg/kg/injection, schedule: Q04DX003 (ip), vehicle: other 90 % of control | dose: 100.0 mg/kg/injection, schedule: Q04DX003 (ip), vehicle: other 108 % of control

Nc1nc2[nH]ncc2c(=O)[nH]1
inactive: [1] 104 % of control | [2] 107 % of control | [3] 93 % of control | [4] 96 % of control

O=CC(O)C(O)C(O)C(O)COP(=O)(O)O (stereo not drawn)
inactive: [5] 102 % of control | [6] 93 % of control | [7] 88 % of control
